Columns and labels:
[1] = test system: term and near-term neonates with pulmonary hypertension and hypoxic respiratory failure; details: Inhaled NO n=97; number of patients (%); cited from earlier work
[2] = test system: pulmonary vasculature of children with pulmonary hypertension; test: INOT22 study: acute pulmonary vasodilator testing during cardiac catheterization; details: iNO 80 ppm; for tolerability: INOT22 diagnostic study, children with pulmonary hypertension; for SVRI Change From Baseline, Mean / SVRI Change From Baseline, Median / SVRI Change From Baseline, Minimum / SVRI Change From Baseline, maximum / Ratio PVRI/SVRI Change from Baseline, Maximum / Ratio PVRI/SVRI Change from Baseline, Mean / Ratio PVRI/SVRI Change from Baseline, Median / Ratio PVRI/SVRI Change from Baseline, Minimum / Ratio PVRI/SVRI Percent Change from Baseline, Maximum / Ratio PVRI/SVRI Percent Change from Baseline, Mean / Ratio PVRI/SVRI Percent Change from Baseline, Median / Ratio PVRI/SVRI Percent Change from Baseline, Minimum / Ratio PVRI/SVRI Post Treatment, Maximum / Ratio PVRI/SVRI Post Treatment, Mean / Ratio PVRI/SVRI Post Treatment, Median / Ratio PVRI/SVRI Post Treatment, Minimum / SVRI Post-treatment, Mean / SVRI Post-treatment, Median / SVRI Post-treatment, Minimum / SVRI Post-treatment, maximum: ITT, each treatment 10 minutes; for SVRI Change From Baseline, Mean / SVRI Change From Baseline, Median / SVRI Change From Baseline, Minimum / SVRI Change From Baseline, maximum: baseline room air
Procedure: The INOT22 study, entitled “Comparison of supplemental oxygen and nitric oxide for inhalation plus oxygen in the evaluation of the reactivity of the pulmonary vasculature during acute pulmonary vasodilatory testing” was conducted both to assess the safety and effectiveness of INOmax® as a diagnostic agent in patients undergoing assessment of pulmonary hypertension (primary endpoint), and to confirm the hypothesis that iNO is selective for the pulmonary vasculature (secondary endpoint).
In particular, the INOT22 protocol studied consecutive children undergoing cardiac catheterization that were prospectively enrolled at 16 centers in the US and Europe. Inclusion criteria: 4 weeks to 18 years of age, pulmonary hypertension diagnosis, i.e. either idiopathic pulmonary hypertension (IPAH) or related to congenital heart disease (CHD) (repaired or unrepaired) or cardiomyopathy, with pulmonary vascular resistance index (PVRI)>3 u−m^2. Later amendments, as discussed herein, added an additional inclusionary criterion of a PCWP less than 20 mm Hg. Patients were studied under general anaesthesia, or with conscious sedation, according to the practice of the investigator. Exclusion criteria: focal infiltrates on chest X-ray, history of intrinsic lung disease, and/or currently taking PDE-5 inhibitors, prostacyclin analogues or sodium nitroprusside. The study involved supplemental O2 and NO for inhalation plus O2 in the evaluation of the reactivity of the pulmonary vasculature during acute pulmonary vasodilator testing. Consecutive children undergoing cardiac catheterization were prospectively enrolled at 16 centers in the US and Europe. […] A specific secondary endpoint was evaluated in study INOT22 to provide a more definitive evaluation.
The primary objective was to compare the response frequency with iNO and O2 vs. O2 alone; in addition, all subjects were studied with iNO alone. Patients were studied during five periods: Baseline 1, Treatment Period 1, Treatment Period 2, Baseline 2 and Treatment Period 3. All patients received all three treatments; treatment sequence was randomized by center in blocks of 4; in Period 1, patients received either NO alone or O2 alone, and the alternate treatment in Period 3. All patients received the iNO and O2 combination treatment in Period 2. Once the sequence was assigned, treatment was unblinded. Each treatment was given for 10 minutes prior to obtaining hemodynamic measurements, and the Baseline Period 2 was at least 10 minutes.

[3] = test system: neonates with hypoxic respiratory failure; details: n=114, number (%), cited from earlier work

Molecule | SVRI Change From Baseline, Mean [2] [WU · m^2] | SVRI Change From Baseline, Median [2] [WU · m^2] | SVRI Change From Baseline, Minimum [2] [WU · m^2] | SVRI Change From Baseline, maximum [2] [WU · m^2] | Ratio PVRI/SVRI Change from Baseline, Maximum [2] | Ratio PVRI/SVRI Change from Baseline, Mean [2] | Ratio PVRI/SVRI Change from Baseline, Median [2] | Ratio PVRI/SVRI Change from Baseline, Minimum [2] | Ratio PVRI/SVRI Percent Change from Baseline, Maximum [2] [%] | Ratio PVRI/SVRI Percent Change from Baseline, Mean [2] [%] | Ratio PVRI/SVRI Percent Change from Baseline, Median [2] [%] | Ratio PVRI/SVRI Percent Change from Baseline, Minimum [2] [%] | Ratio PVRI/SVRI Post Treatment, Maximum [2] | Ratio PVRI/SVRI Post Treatment, Mean [2] | Ratio PVRI/SVRI Post Treatment, Median [2] | Ratio PVRI/SVRI Post Treatment, Minimum [2] | SVRI Post-treatment, Mean [2] [WU · m^2] | SVRI Post-treatment, Median [2] [WU · m^2] | SVRI Post-treatment, Minimum [2] [WU · m^2] | SVRI Post-treatment, maximum [2] [WU · m^2] | other results
nitric oxide [NO] | −0.2 | 0.2 | −12.5 | 12.7 | 1.6 | −0.1 | 0.0 | −4.4 | 294.1 | −6.2 | −13.8 | −256.1 | 2.2 | 0.5 | 0.3 | −1.2 | 17.8 | 15.4 | 3.3 | 50.7 | Adverse Reaction: Atelectasis [1]: 7 (6.5%); Adverse Reaction: Bilirubinemia [1]: 7 (6.5%); Adverse Reaction: Hypokalemia [1]: 9 (8.3%); Adverse Reaction: Hypotension [1]: 6 (5.6%); Adverse Reaction: Thrombocytopenia [1]: 16 (14.8%); tolerability [2]: well-tolerated; tolerability ([2]; listed as iNO): well-tolerated in most patients; Death or ECMO ([3]; 100% O2 with 20 ppm NO for up to 14 days, primary end point): 52 (46%); Death ([3]; 100% O2 with 20 ppm NO): 16 (14%); ECMO ([3]; 100% O2 with 20 ppm NO): 44 (39%)
O=O [O2, oxygen] | 1.3 | 1.0 | −18.1 | 17.7 | 2.0 | −0.1 | −0.1 | −1.6 | 93.3 | −19.3 | −21.3 | −122.7 | 1.4 | 0.4 | 0.4 | 0.0 | 18.9 | 17.1 | 3.9 | 43.6 | –

— patent publication US8951580B2, “Methods for improving the safety of treating pediatric patients who are candidates for inhaled nitric oxide treatment” (priority 2009, dated 2015)
